Experimental findings from US11523995B2, “Compositions and methods for ablating niche cells in testis and other epithelial cells and methods relating thereto” (Duke University, priority 2017, dated 2022) are described below.

Assay [1] deals with donor spermatogenesis. Put plainly: Testicular cell transplantation 7 days post BC treatment. Format: in vivo, mouse. The following applies: CAG-EGFP pup testicular cells transplanted 7 days post BC. How it is done: (§1) 10-15 μl of approximately 1×10^6/ml isolated Sertoli cells or 1×10^8/ml (testicular cells) were injected through the rete testis into the seminiferous tubules of a host mouse on day 4 or day 7 after ablation treatment. A glass needle was back-loaded with the cell suspension and 0.04% Trypan blue to track the efficiency of the injection.
To determine whether the host testes depleted for both Sertoli and germ cells could be used as a scaffold for engraftment of multiple cell types, we performed testicular cell transplantation 7 days post BC treatment (FIG. 7). Nineteen days after testicular cell transplantation from CAG-EGFP pups into a treated host testis, donor Sertoli cells and SSCs colonized. Donor SSCs proliferated with support from donor Sertoli cells, initiated meiosis, and progressed to the spermatocyte stage. EGFP positive leptotene and pachytene spermatocyte were detected. […] Most of these interstitial EGFP bright donor cells were Leydig cells, and some donor PMC colonization was also detected. […] Round spermatids and elongated spermatids generated from donor SSCs with support from donor Sertoli cells were detected in the host testis. In 9/13 testes, donor Sertoli cell and SSC colonization was observed, and full spermatogenesis was detected in 4 of these hosts.

The subject of assay [2] is donor spermatogenesis. Put plainly: Cryopreserved donor testicular cell transplantation into BC treated testis. Format: in vivo, mouse. The following applies: cryopreserved (39 days) cells transplanted 7 days after BC; eight weeks after transplantation. On the procedure: After dissociation and washing steps, samples were placed in 2.0 ml cryovials (Corning, N.Y., USA) containing 500 μl of cryopreservation medium, (10% FBS+DMEM containing 10% DMSO). Samples were placed in a controlled freezing device (Mr. Frosty™ Freezing Container, Thermo Fisher Scientific) and cooled in a −80° C. freezer overnight. The following morning the cryovials were transferred to Liquid nitrogen for storage. Prior to use, samples were thawed quickly in a bath warmed to 37° C.
as §1
To test the efficiency of engraftment using cryopreserved donor tissue, we dissociated testis tissue from CAG-EGFP pups, and cryopreserved cells with cryoprotectant including 10% DMSO in liquid nitrogen. Seven days after BC treatment of wild type host mice, cryopreserved (39 days) donor testicular cells were thawed and introduced into the rete testis (FIG. 8). […] In some tubules, cryopreserved Sertoli cells supported host spermatogenesis, and in other tubules, cryopreserved donor Sertoli cells colonized with donor SSCs and supported donor spermatogenesis.

The test system of a further assay is Sertoli cells. Put plainly: Neonatal testis Sertoli cell selective depletion in vitro (testis tissue culture, immunofluorescence). The settings on record: 0.02% BC 10 min, cultured 4 days. Format: cell-based, mouse. How it is done:
Fragments of the mouse testis were incubated with 0.02% BC for 10 min. After washing several times with PBS, tissues were placed atop 1.5% agarose blocks (214530; Difco), prepared and placed in 6 well tissue culture plates (353046; Falcon) with ˜500 μl of 10% FBS+DMEM (11995-065; Gibco) to reach halfway up the side of the block. After culture, tissues were washed in PBS and fixed for immunofluorescence. The dog testis tissues were incubated with 0.02% or 0.03% BC for 10 min and cultured with 10% KnockOut Serum Replacement (KSR) (Invitrogen; 10828-028)+DMEM (Yokonishi, T., et al. Methods in Molecular Biology 927: 479-488 (2013)). The culture incubator was supplied with 5% (vol/vol) carbon dioxide in air and maintained at 37° C.
For cultured neonatal mouse testes, whole-mount immunofluorescence analysis was performed. Samples were fixed overnight with 4% (wt/vol) paraformaldehyde in PBS at 4° C. After several washes in PBTx (PBS plus 1% Triton X-100), samples were incubated in blocking solution (1% PBTx plus 10% FBS and 3% BSA) for 1 h at room temperature. Primary antibodies were diluted in blocking solution and applied to samples for 2 days at 4° C. After several washes in 1% PBT, fluorescent secondary antibodies were applied for 2 days at 4° C.
We incubated a neonatal testis in 0.02% BC solution for 10 min (or PBS as a control), washed the testis several times with PBS and cultured for 4 days at the surface/air interface in wells atop an agarose block (FIG. 1). At the end of that time, the testis was fixed and stained for immunofluorescence analysis using an antibody against the Sertoli cell marker, SOX9 (Sry-box 9). […] Although the number of F4/80 positive macrophages was increased in the interstitium of drug treated testis, other cell types in the testis including GFRα1 (GDNF family receptor al) and E-CAD (Cadherin1)-positive SSCs, and 3βHSD (3β-hydroxysteroid dehydrogenase)-positive Leydig cells were spared.

Another assay concerns epithelial cells. Put plainly: In vitro epithelial cell ablation in kidney, GI tract, liver and lung tissue culture. Format: cell-based, mouse. The following applies: 0.03% BC 10 min, cultured 4 days. How it is done:
Fragments of the mouse kidney, GI tract, liver and lung were incubated with 0.03% BC for 10 min. After washing several times with PBS, tissues were placed atop 1.5% agarose blocks (214530; Difco), prepared and placed in 6 well tissue culture plates (353046; Falcon) with ˜500 μl of 10% KnockOut Serum Replacement (KSR) (Invitrogen; 10828-028)+DMEM (11995-065; Gibco) to reach halfway up the side of the block. After culture, tissues were washed in PBS and fixed for immunofluorescence. The culture incubator was supplied with 5% (vol/vol) carbon dioxide in air and maintained at 37° C.
We incubated a neonatal kidney, GI tract, liver and lung tissues in 0.03% BC solution for 10 min, washed the tissues several times with PBS and cultured for 4 days at the surface/air interface in wells atop an agarose block (FIG. 9). At the end of that time, the tissues were fixed and stained for immunofluorescence analysis using an antibody against E-CAD (Cadherin1), epithelial marker. […] Although epithelial cells were eliminated in drug treated tissues, LMN (laminin) positive basement membrane and stromal cells which is stained with PDGFRβ were maintained.

Regarding benzalkonium chloride [BC], in the assay on donor spermatogenesis [1], the “hosts with full spermatogenesis (of the colonized testes)” value was 4; the “testes with donor Sertoli cell and SSC colonization” value is given as 9/13. Besides, in the assay with donor spermatogenesis [2], the “host testes colonized by cryopreserved Sertoli cells and SSCs” value is 3/3; the “hosts with full spermatogenesis from donor cells” value turned out to be 2. Moreover, in the assay with Sertoli cells, the “Sertoli cell elimination (SOX9 immunofluorescence)” value is “specifically eliminated Sertoli cells”; the “effect on other testis cell types (GFRα1 and E-CAD-positive SSCs, 3βHSD-positive Leydig cells)” value is reported as “spared”; the “number of F4/80 positive macrophages in the interstitium” value is reported as “increased”. Further, in the assay with epithelial cells, the “LMN positive basement membrane and PDGFRβ stromal cells” value was “maintained”. For the same substance, the “epithelial cell elimination (E-CAD immunofluorescence)” value in the assay with epithelial cells (neonatal kidney, GI tract, liver and lung) was “specifically eliminated epithelial cells”.
